# How the values were obtained:
# Type in all cases: in vivo
# [1] = tested on: Digitaria sanguinalis (DIGSA); test: Herbicidal pre-emergence action, section C (Table C12); details: visual grading after ca. 3 weeks; for pest or weed control at 80 g/ha: Digitaria sanguinalis, pre-emergence, 504 h, read-out: pre-emergence activity against DIGSA in %
# Outline: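 Weed and crop seeds sown in sandy loam, covered with soil, then WP or EC formulations sprayed onto the soil surface as aqueous suspension/emulsion with 0.5% additive at 600 l water/ha. Kept in greenhouse under optimum conditions; damage graded visually after ca. 3 weeks versus untreated controls (0% = as control, 100% = plants dead).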
# Setaria viridis (SETVI) [2] = test: Herbicidal post-emergence action, section B (Table B8); details: application rate 1280 g/ha, visual rating about 3 weeks after treatment vs untreated controls; for pest or weed control at 1280 g/ha: Setaria viridis, post-emergence, 504 h, read-out: post-emergence activity against SETVI in %
# Outline: (§1)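 Greenhouse post-emergence spray on one-leaf-stage plants (sown in sandy loam, 2 to 3 weeks old). WP/EC formulations in water + 0.5% additive, 600 liters per hectare. Read-out: visual % activity vs untreated, ~3 weeks after treatment; 100% = dead, 0% = as control.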
# Stellaria media (STEME) = test: Herbicidal post-emergence action, section B (Table B9); details: visual rating about 3 weeks after treatment vs untreated controls
# Outline: as §1
# [3] = tested on: Echinochloa crus-galli (ECHCG); test: Herbicidal post-emergence action, section B (Table B3); details: rated visually after about 3 weeks; for pest or weed control at 1280 g/ha: Echinochloa crus-galli, 504 h, read-out: post-emergence activity against ECHCG in %
# Outline: as §1
# Zea mays (ZEAMX) [4] = test: Post-emergence effects on crop plants, section F (Table F1); details: for percent crop plant damage (phytotoxicity) on Zea mays, post-emergence at 80 g/ha: 504 h, read-out: post-emergence activity against ZEAMX in %; for post-emergence activity against ZEAMX in %: crop plant damage
# Outline: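 Crops grown in sandy loam in the greenhouse were sprayed post-emergence at the single-leaf stage, 2-3 weeks after sowing. Compounds were formulated as WP or EC with 0.5% additive and applied in 600 l water/ha at 320 g/ha or below. Damage was scored visually about 3 weeks later as % effect versus untreated controls (100% = dead).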
# Setaria viridis (SETVI) [5] = test: Herbicidal pre-emergence action, section A (Table A8); details: for pest or weed control at 320 g/ha: Setaria viridis, 504 h, read-out: pre-emergence activity against SETVI in %
# Outline: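 Read-out is visual herbicidal effect in percent (100% = plants died, 0% = as control), graded ca. 3 weeks after treatment. Test compounds as WP or EC were applied to covering soil over sown seeds with 0.5% additive, 600 l water per hectare; greenhouse growth.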
# Glycine max (GLXMA) = test: Pre-emergence effects on crop plants, section D (Table D4); details: application rate 80 g/ha; visual grading after ca. 3 weeks
# Outline: (§2)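 Seeds sown in sandy loam and covered with soil; WP or EC formulations applied to the covering soil surface as aqueous suspension/emulsion with 0.5% additive at 600 l water/ha, at 320 g/ha or below. Greenhouse growth; visual damage scored after ca. 3 weeks versus untreated controls (0% = as control, 100% = dead).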
# Veronica persica (VERPE) = test: Herbicidal post-emergence action, section E (Table E9); details: visual assessment ca. 3 weeks after spraying
# Source text: Seeds of mono- and dicotyledonous weed plants and crop plants were sown, in plastic or organic planting pots, in sandy loam, covered with soil and grown in a greenhouse under controlled growth conditions. 2 to 3 weeks after sowing, the test plants were sprayed in the single-leaf stage. The compounds according to the invention, formulated in form of wettable powders (WP) or as emulsifiable concentrates (EC), were sprayed onto the green plant parts as aqueous suspension or emulsion, with the addition of 0.5% of an additive, at an application rate of 600 l of water/ha (converted). The test plants were placed in the greenhouse for ca. 3 weeks under optimum growth conditions, and then the effect of the preparations was assessed visually in comparison with untreated controls (herbicidal effect in percent (%): 100% effect=plants have died off, 0% effect=as control plants).
# Zea mays (ZEAMX) [6] = test: Pre-emergence effects on crop plants, section D (Table D1); details: visual grading after ca. 3 weeks
# Outline: as §2
structure (smiles),measurement,setting,value
"Cc1cc2c(nc1-c1cccc(F)c1F)NCS2 [Example I-029, 5-(2,3-difluorophenyl)-6-methyl-2,3-dihydro[1,3]thiazolo[4,5-b]pyridine]",pest or weed control at 80 g/ha,[1]; application rate 80 g/ha,90%
same,pest or weed control at 1280 g/ha,Setaria viridis (SETVI) [2],90%
same,pest or weed control at 320 g/ha,"Stellaria media (STEME); Stellaria media, post-emergence, 504 h, application rate 320 g/ha, read-out: post-emergence activity against STEME in %",90%
same,pest or weed control at 1280 g/ha,[3]; application rate 1280 g/ha,90%
same,"percent crop plant damage (phytotoxicity) on Zea mays, post-emergence at 80 g/ha",Zea mays (ZEAMX) [4]; application rate 80 g/ha,0%
same,pest or weed control at 320 g/ha,Setaria viridis (SETVI) [5]; application rate 320 g/ha,100%
same,pre-emergence activity against GLXMA in % (crop plant damage),Glycine max (GLXMA),10%
"Cc1cc2c(nc1-c1ccccc1F)NCS2 [Example I-007, 5-(2-fluorophenyl)-6-methyl-2,3-dihydro[1,3]thiazolo[4,5-b]pyridine]",pest or weed control at 80 g/ha,[1]; application rate 80 g/ha,100%
same,pest or weed control at 1280 g/ha,Setaria viridis (SETVI) [2],90%
same,pest or weed control at 1280 g/ha,"Stellaria media (STEME); Stellaria media, post-emergence, 504 h, application rate 1280 g/ha, read-out: post-emergence activity against STEME in %",90%
same,pest or weed control at 1280 g/ha,[3]; application rate 1280 g/ha,90%
same,"percent crop plant damage (phytotoxicity) on Zea mays, post-emergence at 80 g/ha",Zea mays (ZEAMX) [4]; application rate 80 g/ha,0%
same,pest or weed control at 80 g/ha,"Veronica persica (VERPE); Veronica persica, 504 h, application rate 80 g/ha, read-out: post-emergence activity against VERPE in %",80%
same,pest or weed control at 320 g/ha,Setaria viridis (SETVI) [5]; application rate 320 g/ha,100%
Cc1cc2c(nc1-c1ccccc1F)N(C(=O)C13CCCC1C(Cl)=NO3)CS2 (stereo not shown) [Example I-104],pre-emergence activity against ZEAMX in % (crop plant damage),Zea mays (ZEAMX) [6]; application rate 80 g/ha,0) %
same,pre-emergence activity against DIGSA in %,[1]; application rate 80 g/ha,100%
same,post-emergence activity against SETVI in %,Setaria viridis (SETVI) [2],90%
same,post-emergence activity against STEME in %,Stellaria media (STEME); application rate 320 g/ha,90%
same,post-emergence activity against ECHCG in %,[3]; application rate 320 g/ha,90%
same,post-emergence activity against ZEAMX in %,Zea mays (ZEAMX) [4]; application rate 80 g/ha,20%
same,post-emergence activity against VERPE in %,Veronica persica (VERPE); application rate 80 g/ha,80%
same,pre-emergence activity against SETVI in %,Setaria viridis (SETVI) [5]; application rate 320 g/ha,100%
COC(=O)CCC(=O)N1CSc2cc(Cl)c(-c3ccccc3F)nc21 [Example I-003],pre-emergence activity against DIGSA in %,[1]; application rate 320 g/ha,90%
same,post-emergence activity against SETVI in %,Setaria viridis (SETVI) [2],90%
same,post-emergence activity against STEME in %,Stellaria media (STEME); application rate 1280 g/ha,90%
same,post-emergence activity against ZEAMX in %,Zea mays (ZEAMX) [4]; application rate 320 g/ha,0%
same,pre-emergence activity against SETVI in %,Setaria viridis (SETVI) [5]; application rate 320 g/ha,100%
COC(=O)CCC(=O)N1CSc2cc(C)c(-c3ccccc3F)nc21 [Example I-010],pre-emergence activity against DIGSA in %,[1]; application rate 80 g/ha,100%
same,post-emergence activity against SETVI in %,Setaria viridis (SETVI) [2],90%
same,post-emergence activity against STEME in %,Stellaria media (STEME); application rate 320 g/ha,90%
same,post-emergence activity against ECHCG in %,[3]; application rate 1280 g/ha,90%
same,post-emergence activity against VERPE in %,Veronica persica (VERPE); application rate 320 g/ha,80%
same,pre-emergence activity against SETVI in %,Setaria viridis (SETVI) [5]; application rate 1280 g/ha,100%
Cc1ccccc1-c1nc2c(cc1C)SCN2C(=O)C1(C)CC(Cl)=NO1 (stereo not shown) [Example I-137],pre-emergence activity against ZEAMX in % (crop plant damage),Zea mays (ZEAMX) [6]; application rate 80 g/ha,20%
same,pre-emergence activity against DIGSA in %,[1]; application rate 320 g/ha,100%
same,post-emergence activity against SETVI in %,Setaria viridis (SETVI) [2],90%
same,post-emergence activity against STEME in %,Stellaria media (STEME); application rate 1280 g/ha,90%
same,post-emergence activity against ECHCG in %,[3]; application rate 320 g/ha,90%
same,post-emergence activity against ZEAMX in %,Zea mays (ZEAMX) [4]; application rate 80 g/ha,0%
same,post-emergence activity against VERPE in %,Veronica persica (VERPE); application rate 320 g/ha,80%
same,pre-emergence activity against SETVI in %,Setaria viridis (SETVI) [5]; application rate 320 g/ha,100%
Cc1cc2c(nc1-c1ccccc1)N(C(=O)C1(C)CC(Cl)=NO1)CS2 (stereo not shown) [Example I-088],pre-emergence activity against ZEAMX in % (crop plant damage),Zea mays (ZEAMX) [6]; application rate 320 g/ha,0%
same,pre-emergence activity against DIGSA in %,[1]; application rate 320 g/ha,100%
same,post-emergence activity against SETVI in %,Setaria viridis (SETVI) [2],90%
same,post-emergence activity against STEME in %,Stellaria media (STEME); application rate 320 g/ha,90%
same,post-emergence activity against ECHCG in %,[3]; application rate 320 g/ha,90%
same,post-emergence activity against ZEAMX in %,Zea mays (ZEAMX) [4]; application rate 320 g/ha,0%
same,post-emergence activity against VERPE in %,Veronica persica (VERPE); application rate 320 g/ha,80%
same,pre-emergence activity against SETVI in %,Setaria viridis (SETVI) [5]; application rate 320 g/ha,100%

# From patent US20240381872A1, “SUBSTITUTED 2,3-DIHYDRO[1,3]THIAZOLO[4,5-B]PYRIDINES, SALTS THEREOF AND THEIR USE AS HERBICIDALLY ACTIVE SUBSTANCES” (BAYER AKTIENGESELLSCHAFT, priority 2021, published 2024)
